US11433081B2 (priority 2018, dated 2022)

System: Chronic Pain
Details: human, in vivo, po

**Q.** For `COc1ccc2c3c1O[C@H]1C(=O)CC[C@@]4(O)[C@@H](C2)N(C)CC[C@]314` [Oxycodone], which Pain level is on record?
**A.** 3 /10
